Test results reported in publication PMC8192908 (Scientific Reports, 2021).
Several values for one entry are separate records, joined by “and”; a condition that tells them apart may be missing. Equal entries are not always repeated.

Columns and labels:
PDE10A = molecular target: T1, PDE10A (Homo sapiens, UniProt Q9Y233); assay: ITC binding of PTX to the catalytic domain of PDE10A
T1 construct: Catalytic domain of each protein was cloned between BamHI and XhoI restriction sites in; 6xHis-SUMO (N, cleaved yes); made in house; host or cells: E. coli Rosetta 2 (DE3)
T1 sequence (Q9Y233 718-1035 limits assumed): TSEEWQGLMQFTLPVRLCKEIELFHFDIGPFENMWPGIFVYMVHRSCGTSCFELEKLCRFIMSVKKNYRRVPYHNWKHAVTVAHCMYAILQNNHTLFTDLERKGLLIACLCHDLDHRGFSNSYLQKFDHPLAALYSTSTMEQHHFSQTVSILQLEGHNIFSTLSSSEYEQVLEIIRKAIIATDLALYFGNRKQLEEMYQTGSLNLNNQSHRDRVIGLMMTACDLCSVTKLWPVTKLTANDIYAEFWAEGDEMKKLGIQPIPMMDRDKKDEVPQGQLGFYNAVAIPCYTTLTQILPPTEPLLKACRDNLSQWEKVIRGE
Source text: Supplementary Materials and Methods
Cloning, expression and purification of catalytic domains of PDE4A, […]
The full length human PDE4A (1005 bp), PDE4D (981 bp) and PDE10A (957 bp) cDNAs, cloned in pET28a(+) expression vector, were purchased from Biomatik, Canada.
Catalytic domain of each protein was cloned between BamHI and XhoI restriction sites in 6x-His-SUMO-tagged bacterial expression vector. The catalytic domain constructs of PDE4A, PDE4D and PDE10A were transformed in E. coli Rosetta 2 (DE3) competent cells for expression. After growing the transformed cells at 37 °C, till the OD 600nm reached 0.5-0.7, the culture containing constructs of PDE4A and PDE4D were induced with 0.1 mM IPTG and the cultures were incubated at 15 °C for 16-18 h, whereas those with PDE10A constructs were induced with 0.5 mM at incubated for 35 -40 h followed by cell harvesting. Harvested cells were suspended in lysis buffer (500 mM NaCl, 50 mM Tris - Cl pH 8.0, 10 mM Imidazole, 3 mM β-mercaptoethanol) and lysed by sonication (Qsonica). The lysates were cleared by centrifugation at 20,000g for 1h and supernatant was passed through Ni-NTA affinity column (His-Trap, GE Healthcare). Eluted proteins were subjected to salt exchange with a buffer containing 100 mM NaCl, 50 mM Tris-Cl pH 8.0, 3 mM β-mercaptoethanol. The collected proteins were further purified using ion - exchange chromatography (Q column, Hi-Trap, GE Healthcare) followed by overnight treatment with ULP1 at 4 °C to cleave 6xHis-SUMO tag. The tag was separated from proteins by a subsequent Ni-NTA purification. The proteins were further purified on size exclusion 16/600 200 pg column (GE Healthcare) pre-equilibrated with a buffer (100 mM […]
NaCl, 50 mM Tris pH 8.0, 5% Glycerol, 3 mM β-mercaptoethanol). After purifying with a gel filtration column, purity was determined on 12% SDS -PAGE and all three proteins were more than 95% pure (Supplementary Figure S10). Purified proteins were concentrated to 20mg/ml, flash cooled with liquid nitrogen and stored at -80°C.
Isothermal titration calorimetry (ITC) binding studies
The equilibrium molar dissociation constant (Kd), stoichiometry (N) and […]
of PDE4A, PDE4D and PDE10A were determined at 25°C, using Affinity ITC (TA instruments). Protein and ligand solutions for titration were prepared in the same buffer.
The reference cell was filled with a distilled water and the sample cell was filled with 350 […]
μL of either PDE4A or PDE4D or PDE10A (75-500 µM). […]
sequentially injected in 2 μL per injection (for a total 20 injections), at a regular interval of 120-150s, while stirring at 125 rpm. The ITC generated data were processed using NanoAnalyze software (TA Instruments). The ITC data was deconvoluted with the “independent” curve fitting model using a nonlinear least-squares algorithm. […]

mouse bone marrow cells = settings: cited from earlier work

Row | Structure (SMILES) | change in enthalpy (ΔH) (PDE10A) | change in entropy (ΔS) (PDE10A) | stoichiometry (N) (PDE10A) | Kd (PDE10A; 25°C, read-out: molar dissociation constant (Kd)) | genotoxic effect on mouse bone marrow cells in vivo (mouse bone marrow cells)
1 | CC(=O)CCCCn1c(=O)c2c(ncn2C)n(C)c1=O [PTX, pentoxifylline] | ~ -8.25±0.04 kcal/mol | ~ -7.8 cal/mol.K | ~ 1.03±0.04 | 44 µM and ~44 µM | –
2 | COc1ccc2cc(/C=C/C(=O)CCCCn3c(=O)c4c(ncn4C)n(C)c3=O)ccc2c1 [PTXm-1] | – | – | – | – | significantly lower genotoxic effect
